From ChEMBL document CHEMBL1817576, “Specific inhibitions of annonaceous acetogenins on class II 3-hydroxy-3-methylglutaryl coenzyme A reductase from Streptococcus pneumoniae” (Bioorg Med Chem, 2011)

How the values were obtained:
[1] = tested on: Streptococcus pneumoniae; assay: Activity of Streptococcus pneumoniae recombinant HMGR class II expressed in Escherichia coli BL21(DE3) using HMG-CoA substrate after 1 min by microplate reader
[2] = tested on: Haloferax volcanii; assay: Activity of Haloferax volcanii HMGR class I expressed in Escherichia coli BL21(DE3) using HMG-CoA substrate after 1 min by microplate reader
[3] = organism: Mesocricetus auratus; assay: Activity of syrian hamsters HMGR class I expressed in Escherichia coli BL21(DE3) using HMG-CoA substrate after 1 min by microplate reader
[4] = tested on: Listeria monocytogenes; assay: Activity of Listeria monocytogenes HMGR class II expressed in Escherichia coli BL21(DE3) using HMG-CoA substrate after 1 min by microplate reader
[5] = tested on: Staphylococcus aureus; assay: Activity of Staphylococcus aureus HMGR class II expressed in Escherichia coli BL21(DE3) using HMG-CoA substrate after 1 min by microplate reader
[6] = Inhibition of Streptococcus pneumoniae recombinant HMGR class II expressed in Escherichia coli using HMG-CoA as substrate
[7] = Inhibition of Archaeoglobus fulgidus HMGCR 1 recombinant HMGR class II expressed in Escherichia coli using HMG-CoA as substrate
[8] = Inhibition of Listeria monocytogenes recombinant HMGR class II expressed in Escherichia coli using HMG-CoA as substrate
[9] = Inhibition of Pseudomonas mevalonii recombinant HMGR class II expressed in Escherichia coli using HMG-CoA as substrate; set-up: species or system Pseudomonas sp. 'mevalonii'
[10] = Inhibition of Staphylococcus aureus recombinant HMGR class II expressed in Escherichia coli using HMG-CoA as substrate
[11] = tested on: Streptococcus pneumoniae; assay: Ratio Ki for lovastatin to compound for recombinant Streptococcus pneumoniae HMGR class II
[12] = organism: Mesocricetus auratus; assay: Activity of syrian hamsters HMGR class I expressed in Escherichia coli BL21(DE3) using NADPH as substrate after 5 min by microplate reader
[13] = tested on: Staphylococcus aureus; assay: Activity of Staphylococcus aureus HMGR class II expressed in Escherichia coli BL21(DE3) using NADPH as substrate after 5 min by microplate reader
[14] = tested on: Streptococcus pneumoniae; assay: Activity of Streptococcus pneumoniae recombinant HMGR class II expressed in Escherichia coli BL21(DE3) using NADPH as substrate after 5 min by microplate reader
[15] = tested on: Listeria monocytogenes; assay: Activity of Listeria monocytogenes HMGR class II expressed in Escherichia coli BL21(DE3) using NADPH as substrate after 5 min by microplate reader
[16] = tested on: Haloferax volcanii; assay: Activity of Haloferax volcanii HMGR class I expressed in Escherichia coli BL21(DE3) using NADPH as substrate after 5 min by microplate reader
[17] = tested on: Listeria monocytogenes; assay: Ratio of Kcat to Km for Listeria monocytogenes HMGR class II using NADPH substrate
[18] = tested on: Streptococcus pneumoniae; assay: Ratio of Kcat to Km for Streptococcus pneumoniae HMGR class II using NADPH substrate

For `CC(C)(CO[P@@](=O)(O)O[P@@](=O)(O)OC[C@H]1O[C@@H](n2cnc3c(N)ncnc32)[C@H](O)[C@@H]1OP(=O)(O)O)[C@@H](O)C(=O)NCCC(=O)NCCSC(=O)C[C@@](C)(O)CC(=O)O`, the Km [1] was 75.9 µM, the Km [2] was 60 µM and the Km [3] was 20 µM. It also gave a Km [4] of 19.8 µM and a Km [5] of 40 µM.
For `CCCCCC[C@H](O)CCC[C@H](O)[C@H]1CC[C@H]([C@H](O)CC[C@H](O)[C@@H]2CC[C@@H](CCCCCCCCCC3=C[C@H](C)OC3=O)O2)O1` [SQUAMOSTATIN A], the Ki [6] was 6.45 µM.
`CCCCCCCCCCC(O)C1CCC(C2CCC(C(O)CCCCCCCC[C@H](O)CC3=C[C@@H](C)OC3=O)O2)O1` (some centres undefined) [ASIMICIN] gave a Ki [6] of 12.2 µM.
In the case of `CCCCC[C@H](O)CCCC[C@H](O)[C@H]1CC[C@H]([C@H]2CC[C@H]([C@H](O)CCCCCCCCCCCCC3=C[C@H](C)OC3=O)O2)O1` [MOTRILIN], the Ki [6] is reported as 20.5 µM.
With `CC[C@H](C)C(=O)O[C@H]1C[C@@H](C)C=C2C=C[C@H](C)[C@H](CC[C@@H]3C[C@@H](O)CC(=O)O3)[C@H]21` [LOVASTATIN] the Ki [7] was 530 µM, the Ki [8] was 130 µM and the Ki [9] was 180 µM. It also gave a Ki [10] of 320 µM, a Ki [6] of 116 µM and a Ratio Ki [11] of 20.
With `CCCCCCCCCC[C@H](O)[C@H]1CC[C@H]([C@H](O)CC[C@H](O)[C@@H]2CC[C@@H](CCCCCCC[C@@H](O)CC3=C[C@H](C)OC3=O)O2)O1` [BULLATALICIN] the Ki [6] was 17.7 µM.
`NC(=O)c1ccc[n+]([C@@H]2O[C@H](COP(=O)([O-])OP(=O)(O)OC[C@H]3O[C@@H](n4cnc5c(N)ncnc54)[C@H](OP(=O)(O)O)[C@@H]3O)[C@@H](O)[C@H]2O)c1` showed a Km [12] of 80 µM, a Km [13] of 70 µM and a Km [14] of 38.9 µM. It also gave a kcat [14] of 11.9 s⁻¹, a Km [15] of 12.9 µM and a kcat [15] of 22.6 s⁻¹. For the same compound, the Km [16] was 66 µM, the kcat/Km [17] was 186000 M⁻¹ s⁻¹ and the kcat/Km [18] was 322000 M⁻¹ s⁻¹.
